Experimental data taken from the NIST ThermoML archive (doi:10.1016/j.jct.2007.07.010).
Values joined by “and” are separate entries in the source; they are usually repeats but may differ in a detail not shown here. Equal entries are not always repeated. ± gives the expanded uncertainty stated by the source.

Legend:
[1] = Molar enthalpy of transition or fusion; conditions: Crystal; DSC
[2] = Crystal; for vapor or sublimation pressure: Calculated from knudsen effusion weight loss; for Normal melting temperature: DTA

O=C(O)Cc1cccc(Cl)c1 [(3-chlorophenyl)ethanoic acid]
Molar enthalpy of transition or fusion [1]: 5.4 ± 0.141 kcal/mol
vapor or sublimation pressure ([2]; 319.2 K): 0.000131 ± 7e-06 kPa and 0.000132 ± 7e-06 kPa and 0.000133 ± 7e-06 kPa
vapor or sublimation pressure ([2]; 321.13 K): 0.000172 ± 9e-06 kPa and 0.000174 ± 9e-06 kPa
vapor or sublimation pressure ([2]; 323.11 K): 0.000226 ± 1.1e-05 kPa and 0.000216 ± 1.1e-05 kPa and 0.000224 ± 1.1e-05 kPa
vapor or sublimation pressure ([2]; 325.2 K): 0.000281 ± 1.4e-05 kPa and 0.000279 ± 1.4e-05 kPa
vapor or sublimation pressure ([2]; 327.12 K): 0.000356 ± 1.8e-05 kPa and 0.00036 ± 1.8e-05 kPa
vapor or sublimation pressure ([2]; 329.11 K): 0.000468 ± 2.3e-05 kPa and 0.000453 ± 2.3e-05 kPa and 0.00046 ± 2.3e-05 kPa
vapor or sublimation pressure ([2]; 331.19 K): 0.000576 ± 2.9e-05 kPa and 0.000578 ± 2.9e-05 kPa and 0.000567 ± 2.8e-05 kPa
vapor or sublimation pressure ([2]; 333.11 K): 0.000733 ± 3.7e-05 kPa and 0.000713 ± 3.6e-05 kPa
vapor or sublimation pressure ([2]; 335.11 K): 0.00092 ± 4.6e-05 kPa
Normal melting temperature [2]: 76.63 ± 0.39 °C

O=C(O)Cc1ccccc1Cl [(2-chlorophenyl)ethanoic acid]
Molar enthalpy of transition or fusion [1]: 5.82 ± 0.139 kcal/mol
vapor or sublimation pressure ([2]; 322.2 K): 0.000151 ± 8e-06 kPa and 0.000153 ± 8e-06 kPa and 0.000152 ± 8e-06 kPa
vapor or sublimation pressure ([2]; 324.14 K): 0.000196 ± 1e-05 kPa and 0.000198 ± 1e-05 kPa and 0.000197 ± 1e-05 kPa
vapor or sublimation pressure ([2]; 326.11 K): 0.00025 ± 1.3e-05 kPa and 0.000251 ± 1.3e-05 kPa and 0.000255 ± 1.3e-05 kPa
vapor or sublimation pressure ([2]; 328.2 K): 0.000315 ± 1.6e-05 kPa and 0.00032 ± 1.6e-05 kPa and 0.000316 ± 1.6e-05 kPa
vapor or sublimation pressure ([2]; 330.13 K): 0.000401 ± 2e-05 kPa and 0.000406 ± 2e-05 kPa and 0.000402 ± 2e-05 kPa
vapor or sublimation pressure ([2]; 332.19 K): 0.000518 ± 2.6e-05 kPa and 0.000512 ± 2.6e-05 kPa
vapor or sublimation pressure ([2]; 334.12 K): 0.00065 ± 3.3e-05 kPa and 0.000639 ± 3.2e-05 kPa
vapor or sublimation pressure ([2]; 336.11 K): 0.000837 ± 4.2e-05 kPa and 0.000813 ± 4.1e-05 kPa and 0.000829 ± 4.2e-05 kPa
vapor or sublimation pressure ([2]; 338.11 K): 0.00105 ± 0.00011 kPa and 0.00103 ± 0.0001 kPa
Normal melting temperature [2]: 94.24 ± 0.39 °C

O=C(O)Cc1ccc(Cl)cc1 [(4-chlorophenyl)ethanoic acid]
Molar enthalpy of transition or fusion [1]: 5.63 ± 0.134 kcal/mol
vapor or sublimation pressure ([2]; 325.2 K): 0.000154 ± 8e-06 kPa and 0.000156 ± 8e-06 kPa and 0.000153 ± 8e-06 kPa
vapor or sublimation pressure ([2]; 327.15 K): 0.000194 ± 1e-05 kPa and 0.000199 ± 1e-05 kPa and 0.000197 ± 1e-05 kPa
vapor or sublimation pressure ([2]; 329.12 K): 0.000252 ± 1.3e-05 kPa and 0.00025 ± 1.3e-05 kPa
vapor or sublimation pressure ([2]; 331.19 K): 0.000318 ± 1.6e-05 kPa and 0.000312 ± 1.6e-05 kPa
vapor or sublimation pressure ([2]; 333.14 K): 0.000401 ± 2e-05 kPa and 0.000398 ± 2e-05 kPa and 0.000394 ± 2e-05 kPa
vapor or sublimation pressure ([2]; 335.12 K): 0.000506 ± 2.5e-05 kPa and 0.000502 ± 2.5e-05 kPa
vapor or sublimation pressure ([2]; 337.2 K): 0.000631 ± 3.2e-05 kPa and 0.000634 ± 3.2e-05 kPa
vapor or sublimation pressure ([2]; 339.13 K): 0.000788 ± 3.9e-05 kPa and 0.000793 ± 4e-05 kPa and 0.000775 ± 3.9e-05 kPa
vapor or sublimation pressure ([2]; 341.11 K): 0.001 ± 5e-05 kPa and 0.00099 ± 5e-05 kPa and 0.00098 ± 4.9e-05 kPa
Normal melting temperature [2]: 104.8 ± 0.39 °C
